Data published in BindingDB's records for PubMed 38746901 (Smith, Gambrell & Russell).

Assay: Inhibition of human recombinant GST tagged NIK incubated for 2 hrs in presence of ATP by alpha screen assay

SMILES | IC50 [µM]
CN1CC[C@@](O)(c2cc(-c3cccc(-c4ccnc(Nc5cnn(C)c5C5CC5)n4)n3)no2)C1=O | < 0.05
CN1CC[C@@](O)(c2cn(-c3cccc(-c4ccnc(Nc5ccn(C)n5)n4)n3)nn2)C1=O | < 0.05
Cc1nscc1Nc1nccc(-c2cccc(-c3cc([C@]4(O)CCN(C)C4=O)on3)n2)n1 | < 0.05
CN1CC[C@@](O)(c2nnc(-c3cccc(-c4ccnc(Nc5cnn(C)c5Cl)n4)n3)s2)C1=O | < 0.05
CN1CC(F)(F)[C@@](O)(c2cc(-c3cccc(-c4ccnc(Nc5cnn(C)c5)n4)n3)no2)C1=O | < 0.05
Cc1nocc1Nc1nccc(-c2cccc(-c3cc([C@]4(O)CCN(C)C4=O)on3)n2)n1 | < 0.05
